Patent US6358885B1, “Substituted phenylheterocyclic herbicides” (Mississippi State University, priority 1992, dated 2002)

Columns and labels:
Test in all cases: Test F preemergence/postemergence greenhouse plant response rating 0 to 100
Details in all cases: 0 to 100 scale
wild mustard = assay type: in vivo, Sinapis arvensis
Source text: (§1) Compounds evaluated in this test were formulated in a non-phytoxic solvent and applied to the soil surface before plant seedlings emerged (preemergence application) and to plants that were in the one-to-four leaf stage (postemergence application). A sandy loam soil was used for the preemergence test while a mixture of sandy loam soil and greenhouse potting mix in a 60:40 ratio was used for the postemergence test. Test compounds were applied within approximately one day after planting seeds for the preemergence test. Plantings of these crops and weed species were adjusted to produce plants of appropriate size for the postemergence test. All plant species were grown using normal greenhouse practices. Crop and weed species include winter barley (Hordeum vulgare cv. ‘Igri’), blackgrass (Alopecurus myosuroides), chickweed (Stellaria media), downy brome (Bromus tectorum), field violet (Viola arvensis), galium (Galium aparine), green foxtail (Setaria viridis), kochia (Kochia scoparia), lambsquarters (Chenopodium album), speedwell (Veronica persica), rape (Brassica napus), ryegrass (Lolium multiflorum), sugar beet (Beta vulgaris cv. ‘USl’), sunflower (Helianthus annuus cv. ‘Russian Giant’), spring wheat (Triticum aestivum cv. ‘ERA’), winter wheat (Triticum aestivum cv. ‘Talent’), wild buckwheat (Polygonum convolvulus), wild mustard (Sinapis arvensis), wild oat (Avena fatua), and wild radish (Raphanus raphanistrum). Blackgrass, galium and wild oat were treated at two growth stages. […] Treated plants and untreated controls were maintained in a greenhouse for approximately 21 to 28 days, after which all treated plants were compared to untreated controls and visually evaluated. […] A dash response (-) means no test result.

blackgrass = assay type: in vivo, Alopecurus myosuroides
Source text: as §1

kochia = assay type: in vivo, Kochia scoparia
Source text: as §1

sugar beet = assay type: in vivo, Beta vulgaris cv. ‘USl’
Source text: as §1

sunflower = assay type: in vivo, Helianthus annuus cv. ‘Russian Giant’
Source text: as §1

wild radish = assay type: in vivo, Raphanus raphanistrum
Source text: as §1

C#CCOc1cc(-c2nn3c(c2Br)CCCC3)c(F)cc1Cl [Compound 26]
40: Wild mustard plant response rating (wild mustard; PREEMERGENCE, Rate 16 g/ha) | Blackgrass (2) plant response rating (blackgrass; PREEMERGENCE, Rate 125 g/ha, Blackgrass (2)) | Blackgrass (1) plant response rating (blackgrass; PREEMERGENCE, Rate 250 g/ha, Blackgrass (1)) | Blackgrass (2) plant response rating (blackgrass; PREEMERGENCE, Rate 250 g/ha, Blackgrass (2)) | Wild radish plant response rating (wild radish; PREEMERGENCE, Rate 64 g/ha)
10: Blackgrass (2) plant response rating (blackgrass; POSTEMERGENCE, Rate 64 g/ha, stage (2) approximately four leaves or initial tillering) | Blackgrass (1) plant response rating (blackgrass; POSTEMERGENCE, Rate 125 g/ha, stage (1) two to three leaves) | Blackgrass (2) plant response rating (blackgrass; POSTEMERGENCE, Rate 125 g/ha, stage (2) approximately four leaves or initial tillering) | Sunflower plant response rating (sunflower; PREEMERGENCE, Rate 125 g/ha)
0: Wild mustard plant response rating (wild mustard; PREEMERGENCE, Rate 4 g/ha) | Wild mustard plant response rating (wild mustard; PREEMERGENCE, Rate 8 g/ha) | Blackgrass (1) plant response rating (blackgrass; POSTEMERGENCE, Rate 4 g/ha, stage (1) two to three leaves) | Blackgrass (2) plant response rating (blackgrass; POSTEMERGENCE, Rate 4 g/ha, stage (2) approximately four leaves or initial tillering) | Blackgrass (1) plant response rating (blackgrass; POSTEMERGENCE, Rate 8 g/ha, stage (1) two to three leaves) | Blackgrass (2) plant response rating (blackgrass; POSTEMERGENCE, Rate 8 g/ha, stage (2) approximately four leaves or initial tillering) | Blackgrass (1) plant response rating (blackgrass; POSTEMERGENCE, Rate 16 g/ha, stage (1) two to three leaves) | Blackgrass (2) plant response rating (blackgrass; POSTEMERGENCE, Rate 16 g/ha, stage (2) approximately four leaves or initial tillering) | Blackgrass (1) plant response rating (blackgrass; POSTEMERGENCE, Rate 32 g/ha, stage (1) two to three leaves) | Blackgrass (2) plant response rating (blackgrass; POSTEMERGENCE, Rate 32 g/ha, stage (2) approximately four leaves or initial tillering) | Blackgrass (1) plant response rating (blackgrass; POSTEMERGENCE, Rate 64 g/ha, stage (1) two to three leaves) | Blackgrass (1) plant response rating (blackgrass; PREEMERGENCE, Rate 4 g/ha, Blackgrass (1)) | Blackgrass (2) plant response rating (blackgrass; PREEMERGENCE, Rate 4 g/ha, Blackgrass (2)) | Blackgrass (1) plant response rating (blackgrass; PREEMERGENCE, Rate 8 g/ha, Blackgrass (1)) | Blackgrass (2) plant response rating (blackgrass; PREEMERGENCE, Rate 8 g/ha, Blackgrass (2)) | Blackgrass (1) plant response rating (blackgrass; PREEMERGENCE, Rate 16 g/ha, Blackgrass (1)) | Blackgrass (2) plant response rating (blackgrass; PREEMERGENCE, Rate 16 g/ha, Blackgrass (2)) | Blackgrass (1) plant response rating (blackgrass; PREEMERGENCE, Rate 32 g/ha, Blackgrass (1)) | Blackgrass (2) plant response rating (blackgrass; PREEMERGENCE, Rate 32 g/ha, Blackgrass (2)) | Blackgrass (1) plant response rating (blackgrass; PREEMERGENCE, Rate 64 g/ha, Blackgrass (1)) | Blackgrass (2) plant response rating (blackgrass; PREEMERGENCE, Rate 64 g/ha, Blackgrass (2)) | Kochia plant response rating (kochia; PREEMERGENCE, Rate 4 g/ha) | Kochia plant response rating (kochia; PREEMERGENCE, Rate 8 g/ha) | Sugar beet plant response rating (sugar beet; PREEMERGENCE, Rate 4 g/ha) | Sunflower plant response rating (sunflower; POSTEMERGENCE, Rate 4 g/ha) | Sunflower plant response rating (sunflower; POSTEMERGENCE, Rate 8 g/ha) | Sunflower plant response rating (sunflower; POSTEMERGENCE, Rate 16 g/ha) | Sunflower plant response rating (sunflower; PREEMERGENCE, Rate 4 g/ha) | Sunflower plant response rating (sunflower; PREEMERGENCE, Rate 8 g/ha) | Sunflower plant response rating (sunflower; PREEMERGENCE, Rate 16 g/ha) | Sunflower plant response rating (sunflower; PREEMERGENCE, Rate 32 g/ha) | Sunflower plant response rating (sunflower; PREEMERGENCE, Rate 64 g/ha) | Wild radish plant response rating (wild radish; POSTEMERGENCE, Rate 4 g/ha) | Wild radish plant response rating (wild radish; PREEMERGENCE, Rate 4 g/ha) | Wild radish plant response rating (wild radish; PREEMERGENCE, Rate 8 g/ha) | Wild radish plant response rating (wild radish; PREEMERGENCE, Rate 16 g/ha) | Wild radish plant response rating (wild radish; PREEMERGENCE, Rate 32 g/ha)
20: Blackgrass (1) plant response rating (blackgrass; PREEMERGENCE, Rate 125 g/ha, Blackgrass (1)) | Sunflower plant response rating (sunflower; POSTEMERGENCE, Rate 32 g/ha) | Wild radish plant response rating (wild radish; POSTEMERGENCE, Rate 8 g/ha)
80: Wild mustard plant response rating (wild mustard; PREEMERGENCE, Rate 64 g/ha) | Kochia plant response rating (kochia; PREEMERGENCE, Rate 16 g/ha) | Kochia plant response rating (kochia; PREEMERGENCE, Rate 32 g/ha)
50: Wild mustard plant response rating (wild mustard; PREEMERGENCE, Rate 32 g/ha) | Sugar beet plant response rating (sugar beet; PREEMERGENCE, Rate 8 g/ha)
15: Blackgrass (2) plant response rating (blackgrass; POSTEMERGENCE, Rate 250 g/ha, stage (2) approximately four leaves or initial tillering)
60: Sugar beet plant response rating (sugar beet; PREEMERGENCE, Rate 16 g/ha) | Sunflower plant response rating (sunflower; POSTEMERGENCE, Rate 64 g/ha) | Sunflower plant response rating (sunflower; POSTEMERGENCE, Rate 250 g/ha) | Sunflower plant response rating (sunflower; PREEMERGENCE, Rate 250 g/ha) | Wild radish plant response rating (wild radish; POSTEMERGENCE, Rate 16 g/ha) | Wild radish plant response rating (wild radish; POSTEMERGENCE, Rate 32 g/ha) | Wild radish plant response rating (wild radish; POSTEMERGENCE, Rate 64 g/ha) | Wild radish plant response rating (wild radish; POSTEMERGENCE, Rate 125 g/ha) | Wild radish plant response rating (wild radish; POSTEMERGENCE, Rate 250 g/ha)
30: Blackgrass (1) plant response rating (blackgrass; POSTEMERGENCE, Rate 250 g/ha, stage (1) two to three leaves)
70: Wild mustard plant response rating (wild mustard; POSTEMERGENCE, Rate 4 g/ha) | Wild mustard plant response rating (wild mustard; POSTEMERGENCE, Rate 8 g/ha) | Wild mustard plant response rating (wild mustard; PREEMERGENCE, Rate 125 g/ha) | Sugar beet plant response rating (sugar beet; PREEMERGENCE, Rate 32 g/ha) | Wild radish plant response rating (wild radish; PREEMERGENCE, Rate 125 g/ha)
100: Wild mustard plant response rating (wild mustard; POSTEMERGENCE, Rate 16 g/ha) | Wild mustard plant response rating (wild mustard; POSTEMERGENCE, Rate 32 g/ha) | Wild mustard plant response rating (wild mustard; POSTEMERGENCE, Rate 64 g/ha) | Wild mustard plant response rating (wild mustard; POSTEMERGENCE, Rate 125 g/ha) | Wild mustard plant response rating (wild mustard; POSTEMERGENCE, Rate 250 g/ha) | Kochia plant response rating (kochia; POSTEMERGENCE, Rate 4 g/ha) | Kochia plant response rating (kochia; POSTEMERGENCE, Rate 8 g/ha) | Kochia plant response rating (kochia; POSTEMERGENCE, Rate 16 g/ha) | Kochia plant response rating (kochia; POSTEMERGENCE, Rate 32 g/ha) | Kochia plant response rating (kochia; POSTEMERGENCE, Rate 64 g/ha) | Kochia plant response rating (kochia; POSTEMERGENCE, Rate 125 g/ha) | Kochia plant response rating (kochia; POSTEMERGENCE, Rate 250 g/ha) | Kochia plant response rating (kochia; PREEMERGENCE, Rate 64 g/ha) | Kochia plant response rating (kochia; PREEMERGENCE, Rate 125 g/ha) | Sugar beet plant response rating (sugar beet; POSTEMERGENCE, Rate 4 g/ha) | Sugar beet plant response rating (sugar beet; POSTEMERGENCE, Rate 8 g/ha) | Sugar beet plant response rating (sugar beet; POSTEMERGENCE, Rate 16 g/ha) | Sugar beet plant response rating (sugar beet; POSTEMERGENCE, Rate 32 g/ha) | Sugar beet plant response rating (sugar beet; POSTEMERGENCE, Rate 64 g/ha) | Sugar beet plant response rating (sugar beet; POSTEMERGENCE, Rate 125 g/ha) | Sugar beet plant response rating (sugar beet; POSTEMERGENCE, Rate 250 g/ha) | Sugar beet plant response rating (sugar beet; PREEMERGENCE, Rate 64 g/ha) | Sugar beet plant response rating (sugar beet; PREEMERGENCE, Rate 125 g/ha) | Sugar beet plant response rating (sugar beet; PREEMERGENCE, Rate 250 g/ha) | Sunflower plant response rating (sunflower; POSTEMERGENCE, Rate 125 g/ha) | Wild radish plant response rating (wild radish; PREEMERGENCE, Rate 250 g/ha)
